Assay results as given in ChEMBL document CHEMBL1148182, “Flavonone and chalcone derivatives from Cryptocarya kurzii” (J Nat Prod, 1993).
Values after ≈ are worked out from the molar mass of the structure shown.

Test system: KB
Test: Cytotoxicity against human KB cells
Assay type: functional, cell-based

Row | Compound | IC50
1 | O=C1CCC[C@@H]2C[C@H](C[C@](O)(/C=C/c3ccccc3)O2)c2c(cc(O)c(C(=O)/C=C/c3ccccc3)c2O)O1 [KURZICHALCOLACTONE] | 15 µg/mL (≈ 28.5 µM)
2 | O=C1CCC[C@@H]2C[C@H](C[C@](O)(/C=C/c3ccccc3)O2)c2c(cc(O)c3c2O[C@H](c2ccccc2)CC3=O)O1 [KURZIFLAVOLACTONE B] | 4 µg/mL (≈ 7.6 µM)
